For 24 compounds, IC50 results are on record in patent publication US20250376468A1, “PYRAZOLO[1,5-a]PYRIDINE DERIVATIVES FOR TREATING TRPM3-MEDIATED DISORDERS” (Katholieke Universiteit Leuven, priority 2022, published 2025).

The target in the assay is T1, mouse TRPM3α2 (mTRPM3) ion channel (Mus musculus, UniProt J9SQF3).
T1 construct: expressed in transfected cells; host or cells: flip-in HEK293 (Flp-In HEK293) overexpressing mTRPM3alpha2
Briefly: TRPM3 ion channel driven Ca2+ uptake, Fluo-4 AM assay, stimulated with pregnenolone sulfate (50 μM). The format is cell-based. The note with it: TRPM3 overexpressing flip-in HEK293 cells, PS 50 μM, 2.4 mM Ca2+. The procedure: In order to monitor the inhibition of the mouse TRPM3α2 (mTRPM3) ion channel by the compounds of the invention, a cellular system making use of an mTRPM3alpha2 or hTRPM3 overexpressing cell line (flip-in HEK293) was used. The TRPM3 channel was stimulated/opened with Pregnenolone sulfate (PS) (50 μM) which results in Ca^2+ influx.
For mTRPM3, the intracellular Ca^2+ was measured with a Calcium responsive dye, Fluor-4 AM ester (Invitrogen). Cells were cultured until a confluence of 80-90%, washed with Versene (Invitrogen) and detached from the surface by a short incubation with 0.05% Trypsin (Invitrogen). The […] was stopped by the addition of complete cell culture medium (DMEM, glutamax, 10% FCS, NEAA, Pen-Strep). Cells were collected and resuspended in Krebs buffer without Calcium at RT.
Prior the cell seeding (±2000 cells/well into a black, 384 well plate (Greiner)) the diluted compound was added in the assay plate, together with the PS dissolved in Krebs buffer containing Calcium. […] Directly after cell addition the plates were read on an Envision fluorescence reader (Perkin Elmer) by an Excitation of 485 nm and emission at 535 nm.
Channel inhibition was calculated compared to a non-PS stimulated control versus a condition stimulated with PS (50 μM) with vehicle. The ability of the compounds of the invention to inhibit this activity was determined as: Percentage inhibition=[1−((RFU determined for sample with test compound present−RFU determined for sample with positive control inhibitor) divided by (RFU determined in the presence of vehicle−RFU determined for sample with positive control inhibitor))]*100.
The activities of the Example compounds cpd 001-091 tested are depicted in the table below. All tested compounds show an activity in the Fluo-4 AM assay. The activity ranges A, B and C refer to IC50 values in the Fluo-4 AM assay as follows: “A”: IC50<1 μM; “B”: 1 μM≤IC50≤20 μM and “C”: IC50>20 μM.

T1 sequence (J9SQF3 1-1709 isoform J9SQF3-12): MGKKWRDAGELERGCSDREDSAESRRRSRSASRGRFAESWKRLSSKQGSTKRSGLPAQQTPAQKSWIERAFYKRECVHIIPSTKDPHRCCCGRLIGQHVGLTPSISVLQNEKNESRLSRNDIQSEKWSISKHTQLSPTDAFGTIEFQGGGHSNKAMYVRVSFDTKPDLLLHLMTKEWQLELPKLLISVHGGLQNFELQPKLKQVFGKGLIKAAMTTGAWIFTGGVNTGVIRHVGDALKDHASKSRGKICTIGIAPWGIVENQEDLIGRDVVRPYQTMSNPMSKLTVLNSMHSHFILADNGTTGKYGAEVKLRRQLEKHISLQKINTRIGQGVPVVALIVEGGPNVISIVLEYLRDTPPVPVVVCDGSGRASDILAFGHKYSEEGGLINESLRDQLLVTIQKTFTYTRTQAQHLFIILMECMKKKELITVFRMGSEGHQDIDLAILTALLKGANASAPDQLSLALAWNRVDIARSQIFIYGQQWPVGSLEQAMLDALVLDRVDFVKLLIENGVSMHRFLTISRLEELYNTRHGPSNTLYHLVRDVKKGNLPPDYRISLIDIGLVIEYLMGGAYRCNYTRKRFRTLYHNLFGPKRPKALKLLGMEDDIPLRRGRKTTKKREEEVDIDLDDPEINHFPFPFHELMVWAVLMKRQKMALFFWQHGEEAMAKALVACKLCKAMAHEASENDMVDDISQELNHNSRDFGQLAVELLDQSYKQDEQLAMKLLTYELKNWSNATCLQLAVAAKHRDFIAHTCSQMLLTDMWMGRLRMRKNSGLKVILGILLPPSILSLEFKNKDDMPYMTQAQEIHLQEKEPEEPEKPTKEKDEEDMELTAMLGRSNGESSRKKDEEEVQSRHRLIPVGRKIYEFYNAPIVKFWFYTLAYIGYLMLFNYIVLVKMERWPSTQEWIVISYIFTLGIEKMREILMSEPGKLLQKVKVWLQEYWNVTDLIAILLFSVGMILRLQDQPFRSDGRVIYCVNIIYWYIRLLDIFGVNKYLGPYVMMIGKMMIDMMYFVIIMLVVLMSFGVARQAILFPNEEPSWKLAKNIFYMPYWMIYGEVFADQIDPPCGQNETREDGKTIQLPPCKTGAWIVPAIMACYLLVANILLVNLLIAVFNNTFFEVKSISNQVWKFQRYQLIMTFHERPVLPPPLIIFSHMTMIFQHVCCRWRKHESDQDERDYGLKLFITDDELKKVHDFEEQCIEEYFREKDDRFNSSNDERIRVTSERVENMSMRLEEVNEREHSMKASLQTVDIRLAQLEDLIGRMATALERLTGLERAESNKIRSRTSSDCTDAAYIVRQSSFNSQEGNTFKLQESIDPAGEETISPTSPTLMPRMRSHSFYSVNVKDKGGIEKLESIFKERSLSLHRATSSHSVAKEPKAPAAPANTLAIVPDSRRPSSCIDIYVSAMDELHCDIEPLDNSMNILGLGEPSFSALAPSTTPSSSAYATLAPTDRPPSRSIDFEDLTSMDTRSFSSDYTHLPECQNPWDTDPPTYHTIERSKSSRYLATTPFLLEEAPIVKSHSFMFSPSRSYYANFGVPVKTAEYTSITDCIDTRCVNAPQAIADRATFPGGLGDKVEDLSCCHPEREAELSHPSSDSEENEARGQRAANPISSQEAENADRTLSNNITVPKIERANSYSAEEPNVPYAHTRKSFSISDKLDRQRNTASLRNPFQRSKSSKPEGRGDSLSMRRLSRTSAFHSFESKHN

For orientation: IC50 means the point on the concentration scale where inhibition reaches its midpoint. Read a high IC50 as lower potency. Consider `Cc1nn2ccc(OCc3ccccn3)cc2c1C(=O)N[C@H](CO)CC(N)=O` [Cpd 076 - En1, (S)-4-hydroxy-3-({2-methyl-5-[(pyridin-2-yl)methoxy]pyrazolo[1,5-a]pyridin-3-yl}formamido)butanamide], for which the IC50 was over 20 µM.

`Cc1nn2ccc(OCc3ccccc3F)cc2c1C(=O)NC1(CO)CCNC1=O` (single isomer, unassigned) [Cpd 018 - En1, 5-[(2-fluorophenyl)methoxy]-N-[3-(hydroxymethyl)-2-oxopyrrolidin-3-yl]-2-methylpyrazolo[1,5-a]pyridine-3-carboxamide]: the IC50 lay in the range of 1 to 20 µM.

In turn, `Cc1nn2ccc(OCc3ccccn3)cc2c1C(=O)NCc1ncc[nH]1` [Cpd 044, N-[(1H-imidazol-2-yl)methyl]-2-methyl-5-[(pyridin-2-yl)methoxy]pyrazolo[1,5-a]pyridine-3-carboxamide] registered an IC50 of 1 to 20 µM.

As for `Cc1nn2ccc(OCc3ccccc3)cc2c1C(=O)O` [Cpd 033, 5-(benzyloxy)-2-methylpyrazolo[1,5-a]pyridine-3-carboxylic acid], the IC50 was over 20 µM.

For the compound `Cc1nn2ccc(OCc3ccccn3)cc2c1C(=O)NC1CNCC(F)(F)C1` (single isomer, unassigned) [Cpd 052 - En2, N-(5,5-difluoropiperidin-3-yl)-2-methyl-5-[(pyridin-2-yl)methoxy]pyrazolo[1,5-a]pyridine-3-carboxamide], the IC50 is over 20 µM.

The compound `Cc1nn2ccc(OCc3ccccc3Cl)cc2c1C(=O)O` [Cpd 036, 5-[(2-chlorophenyl)methoxy]-2-methylpyrazolo[1,5-a]pyridine-3-carboxylic acid] registered an IC50 of over 20 µM.

The compound `CNC(=O)C(C)(CO)NC(=O)c1c(C)nn2ccc(OCc3ccccc3F)cc12` (single isomer, unassigned) [Cpd 011 - En2, 2-({5-[(2-fluorophenyl)methoxy]-2-methylpyrazolo[1,5-a]pyridin-3-yl}formamido)-3-hydroxy-N,2-dimethylpropanamide] had an IC50 of 1 to 20 µM.

The compound `Cc1nn2ccc(OCc3ccccc3F)cc2c1C(=O)N[C@H](C(N)=O)[C@@H](C)O` [Cpd 007, (2S,3R)-2-({5-[(2-fluorophenyl)methoxy]-2-methylpyrazolo[1,5-a]pyridin-3-yl}formamido)-3-hydroxybutanamide] gave an IC50 of under 1 µM.

Compound `Cc1nn2ccc(OCc3ccccn3)cc2c1C(=O)NC1CNCCC1(F)F` (single isomer, unassigned) [Cpd 050 - En1, N-(4,4-difluoropiperidin-3-yl)-2-methyl-5-[(pyridin-2-yl)methoxy]pyrazolo[1,5-a]pyridine-3-carboxamide] yielded an IC50 of over 20 µM.

In turn, `Cc1nn2ccc(OCc3ccccn3)cc2c1C(=O)NCc1cccc(OC(F)F)c1` [Cpd 048, N-{[3-(difluoromethoxy)phenyl]methyl}-2-methyl-5-[(pyridin-2-yl)methoxy]pyrazolo[1,5-a]pyridine-3-carboxamide] yielded an IC50 of over 20 µM.

`Cc1nn2ccc(OCc3ccccn3)cc2c1C(=O)NC1(CO)CC1(F)F` (stereo not drawn) [Cpd 071, N-[2,2-difluoro-1-(hydroxymethyl)cyclopropyl]-2-methyl-5-[(pyridin-2-yl)methoxy]pyrazolo[1,5-a]pyridine-3-carboxamide] showed an IC50 of over 20 µM.

In turn, `Cc1nn2ccc(OCc3ccccn3)cc2c1C(=O)NCc1c(F)cccc1C(F)(F)F` [Cpd 047, N-{[2-fluoro-6-(trifluoromethyl)phenyl]methyl}-2-methyl-5-[(pyridin-2-yl)methoxy]pyrazolo[1,5-a]pyridine-3-carboxamide] had an IC50 of 1 to 20 µM.

`Cc1nn2ccc(OCc3ccccc3F)cc2c1C(=O)O` [Cpd 035, 5-[(2-fluorophenyl)methoxy]-2-methylpyrazolo[1,5-a]pyridine-3-carboxylic acid] had an IC50 of over 20 µM.

`Cc1nn2ccc(OCc3ccccc3F)cc2c1C(=O)NC(C)(CO)C(N)=O` (single isomer, unassigned) [Cpd 020 - En2, 2-({5-[(2-fluorophenyl)methoxy]-2-methylpyrazolo[1,5-a]pyridin-3-yl}formamido)-3-hydroxy-2-methylpropanamide] gave an IC50 of 1 to 20 µM.

For the compound `Cc1ncsc1COc1ccn2nc(C)c(C(=O)NC(C)(CO)CO)c2c1` [Cpd 008, N-(1,3-dihydroxy-2-methylpropan-2-yl)-2-methyl-5-[(4-methyl-1,3-thiazol-5-yl)methoxy]pyrazolo[1,5-a]pyridine-3-carboxamide], the IC50 fell in the range of 1 to 20 µM.

Compound `Cc1nn2ccc(OCc3ccccc3F)cc2c1C(=O)NC(C)(C)C(N)=O` [Cpd 004, 2-({5-[(2-fluorophenyl)methoxy]-2-methylpyrazolo[1,5-a]pyridin-3-yl}formamido)-2-methylpropanamide] yielded an IC50 of 1 to 20 µM.

For the compound `Cc1nn2ccc(OCc3ccccn3)cc2c1C(=O)NC(C)(CO)CC(F)F` (single isomer, unassigned) [Cpd 038 - En1, N-(4,4-difluoro-1-hydroxy-2-methylbutan-2-yl)-2-methyl-5-[(pyridin-2-yl)methoxy]pyrazolo[1,5-a]pyridine-3-carboxamide], the IC50 lay within 1 to 20 µM.

Turning to `Cc1nn2ccc(OCc3ccccn3)cc2c1C(=O)NC(CO)CC(N)=O` (stereo not drawn) [Cpd 076 - En2], the 50% inhibitory concentration (IC50) is over 20 µM.

On to `Cc1nn2ccc(OCc3ccccn3)cc2c1C(=O)NC1(CO)CC(F)(F)C1` [Cpd 055, N-[3,3-difluoro-1-(hydroxymethyl)cyclobutyl]-2-methyl-5-[(pyridin-2-yl)methoxy]pyrazolo[1,5-a]pyridine-3-carboxamide], for which the IC50 was 1 to 20 µM.

Take `CNC(=O)C(C)(CO)NC(=O)c1c(C)nn2ccc(OCc3ccccc3F)cc12` (single isomer, unassigned) [Cpd 011 - En1, 2-({5-[(2-fluorophenyl)methoxy]-2-methylpyrazolo[1,5-a]pyridin-3-yl}formamido)-3-hydroxy-N,2-dimethylpropanamide]: the IC50 is under 1 µM.

`Cc1nn2ccc(OCc3ccccc3F)cc2c1C(=O)NC1(CO)CCNC1=O` (single isomer, unassigned) [Cpd 018 - En2, 5-[(2-fluorophenyl)methoxy]-N-[3-(hydroxymethyl)-2-oxopyrrolidin-3-yl]-2-methylpyrazolo[1,5-a]pyridine-3-carboxamide] displayed an IC50 of under 1 µM.

Regarding `Cc1nn2ccc(OCc3ccccc3Cl)cc2c1C(=O)NC(C)(CO)C(N)=O` (single isomer, unassigned) [Cpd 019 - En1, 2-({5-[(2-chlorophenyl)methoxy]-2-methylpyrazolo[1,5-a]pyridin-3-yl}formamido)-3-hydroxy-2-methylpropanamide], the concentration for half-maximal inhibition (IC50) is under 1 µM.

In turn, `Cc1nn2ccc(OCc3ccccn3)cc2c1C(=O)NCCO` [Cpd 043, N-(2-hydroxyethyl)-2-methyl-5-[(pyridin-2-yl)methoxy]pyrazolo[1,5-a]pyridine-3-carboxamide] had a half-maximal inhibitory concentration (IC50) of over 20 µM.

In turn, `Cc1ncsc1COc1ccn2nc(C)c(C(=O)N[C@@H](CO)C(N)=O)c2c1` [Cpd 010, (2S)-3-hydroxy-2-({2-methyl-5-[(4-methyl-1,3-thiazol-5-yl)methoxy]pyrazolo[1,5-a]pyridin-3-yl}formamido)propanamide] had an IC50 of 1 to 20 µM.
